Key:
[1] = system: primary pancreatic tumor cell line pp109; assay: Cell death by Hoechst 33258 staining, pp109; type: cell-based; conditions: single-drug or combined treatment
Protocol: (§1) All materials for cell culture and determination of cell growth and death were detailed in earlier publications. [Blum, R., Jacob-[…]. and Kloog, Y., Cancer Res 65:999-1006 (2005); […]., Jacob-[…]. and Kloog, Y., Clin Cancer Res 11:4321-30 (2005)]. FTS was provided by Concordia Pharmaceuticals, Inc. 2DG was purchased from Sigma (cat #D3179). Cells were maintained in DMEM/10% FCS at a constant temperature of 37° C. in a humidified atmosphere of 95% air/5% CO2. Cells were plated in 1 ml DMEM/5% FCS at a density of 10,000 in 24 wells plates, and treated 24 hours (h) later with 50 μM or 75 μM FTS or with the vehicle (0.1% Me2SO). Forty-eight (48) h later the medium was replaced by a medium containing either 10 mM glucose or 5 mM glucose plus 5 mM 2DG. […] Following incubation for 24 or 48 h, as specified in each experiment, the cells were stained with Hoechst 33258 (1 μg/mL) to determine the extent of cell death; the cells were incubated with the reagent for 5 min and stained nuclei were visualized by a fluorescence microscope. […] Data were collected by imaging each well then analyzed as follows: the total number of cells was calculated of the phase contrast images and the number of dead cells was calculated of the fluorescence images. The percentage of Hoechst stained dead cells ([dead cells/total number of cells]×100) was calculated and presented as means±SD.

[2] = system: human glioblastoma cell line U87; assay: Cell death by Hoechst 33258 staining, U87; type: cell-based; conditions: single or combined treatment
Protocol: as §1

[3] = system: pancreatic carcinoma cell line panc-1; assay: Cell number from phase contrast images, panc-1; type: cell-based
Protocol: (§2) All materials for cell culture and determination of cell growth and death were detailed in earlier publications. [Blum, R., Jacob-Hirsch, J., Amariglio, N., Rechavi, G. and Kloog, Y., Cancer Res 65:999-1006 (2005); Yaari, S., Jacob-Hirsch, J., Amariglio, N., Haklai, R., Rechavi, G. and Kloog, Y., Clin Cancer Res 11:4321-30 (2005)]. FTS was provided by Concordia Pharmaceuticals, Inc. 2DG was purchased from Sigma (cat #D3179). Cells were maintained in DMEM/10% FCS at a constant temperature of 37° C. in a humidified atmosphere of 95% air/5% CO2. Cells were plated in 1 ml DMEM/5% FCS at a density of 10,000 in 24 wells plates, and treated 24 hours (h) later with 50 μM or 75 μM FTS or with the vehicle (0.1% Me2SO). […] Following incubation for 24 or 48 h, as specified in each experiment, the cells were stained with Hoechst 33258 (1 μg/mL) to determine the extent of cell death; the cells were incubated with the reagent for 5 min and stained nuclei were visualized by a fluorescence microscope. […]
(§3) All experiments were performed and repeated at least four times. Data were collected by imaging each well then analyzed as follows: the total number of cells was calculated of the phase contrast images and the number of dead cells was calculated of the fluorescence images. The percentage of Hoechst stained dead cells ([dead cells/total number of cells]×100) was calculated and presented as means±SD.

[4] = system: primary pancreatic tumor cell line pp109; assay: Cell number from phase contrast images, pp109; type: cell-based
Protocol: as §2, §3

[5] = system: primary pancreatic tumor cell line pp 78; assay: Cell death by Hoechst 33258 staining, pp 78; type: cell-based; conditions: single-drug or combined treatment
Protocol: as §1

[6] = system: pancreatic carcinoma cell line panc-1; assay: Cell death by Hoechst 33258 staining, panc-1; type: cell-based; conditions: for percentage of dead cells: panc-1
Protocol: All materials for cell culture and determination of cell growth and death were detailed in earlier publications. [Blum, R., Jacob-[…]. and Kloog, Y., Cancer Res 65:999-1006 (2005); […]., Jacob-[…]. and Kloog, Y., Clin Cancer Res 11:4321-30 (2005)]. FTS was provided by Concordia Pharmaceuticals, Inc. 2DG was purchased from Sigma (cat #D3179). Cells were maintained in DMEM/10% FCS at a constant temperature of 37° C. in a humidified atmosphere of 95% air/5% CO2. Cells were plated in 1 ml DMEM/5% FCS at a density of 10,000 in 24 wells plates, and treated 24 hours (h) later with 50 μM or 75 μM FTS or with the vehicle (0.1% Me2SO). Forty-eight (48) h later the medium was replaced by a medium containing either 10 mM glucose or 5 mM glucose plus 5 mM 2DG. The FTS treated groups were replenished with the drug and the controls with 0.1% Me2SO. Following incubation for 24 or 48 h, as specified in each experiment, the cells were stained with Hoechst 33258 (1 μg/mL) to determine the extent of cell death; the cells were incubated with the reagent for 5 min and stained nuclei were visualized by a fluorescence microscope. Additionally, phase contrast images were taken. All experiments were performed and repeated at least four times. Data were collected by imaging each well then analyzed as follows: the total number of cells was calculated of the phase contrast images and the number of dead cells was calculated of the fluorescence images. The percentage of Hoechst stained dead cells ([dead cells/total number of cells]×100) was calculated and presented as means±SD.

[7] = system: primary pancreatic tumor cell line pp161; assay: Cell death by Hoechst 33258 staining, pp161; type: cell-based; conditions: single-drug or combined treatment
Protocol: as §1

[8] = system: primary pancreatic tumor cell line pp161; assay: Cell number from phase contrast images, pp161; type: cell-based
Protocol: as §2, §3

[9] = system: primary pancreatic tumor cell line pp 78; assay: Cell number from phase contrast images, pp 78; type: cell-based
Protocol: as §2, §3

[10] = system: human glioblastoma cell line U87; assay: Cell number from phase contrast images, U87; type: cell-based; conditions: single or combined treatment
Protocol: as §1

[11] = system: human glioblastoma cell line U373; assay: Cell death by Hoechst 33258 staining, U373; type: cell-based; conditions: single or combined treatment
Protocol: as §1

[12] = system: human glioblastoma cell line U373; assay: Cell number from phase contrast images, U373; type: cell-based; conditions: single or combined treatment
Protocol: as §1

Mia Paca cells = conditions: cited from earlier work
GBM cells = conditions: reported (Blum 2005; Yaari 2005); cited from earlier work
panc-1 cells = conditions: cited from earlier work
[13] = previously shown (Kloog and Cox 2000)

OCC1OC(O)CC(O)C1O [2DG, 2-deoxy-D-glucose, reference compound]
cell death above the levels observed in the controls [1]: induced death | cell death [2]: no significant increase in cell death | decrease in cell number ([3]; 2DG alone, compared with FTS): decrease in cell number, but to a lower extent | decrease in cell number ([4]; 2DG alone, compared with FTS): decrease in cell number, but to a lower extent | cell death above the levels observed in the controls [5]: did not cause a significant increase in death | cell survival ([6]; 2DG (5 mM) combined with equimolar glucose, cell death similar to controls (3%)): did not affect cell survival | percentage of dead cells ([6]; 2DG alone (5 mM glucose plus 5 mM 2DG)): 3% | cell death above the levels observed in the controls [7]: did not cause a significant increase in death | decrease in cell number ([8]; 2DG alone, compared with FTS): decrease in cell number, but to a lower extent | decrease in cell number ([9]; 2DG alone, compared with FTS): decrease in cell number, but to a lower extent | total cell number [10]: induced a decrease in total cell number | cell death [11]: no significant increase in cell death | total cell number [12]: induced a decrease in total cell number

CC(C)=CCC/C(C)=C/CC/C(C)=C/CSc1ccccc1C(=O)O [FTS, farnesylthiosalicylic acid]
cell death above the levels observed in the controls [1]: induced death | cell death [2]: no significant increase in cell death | decrease in cell number ([3]; 75 μM FTS alone): ~2 fold | cell death (Mia Paca cells; FTS alone): did not induce death | anchorage-dependent and anchorage-independent growth (Mia Paca cells; [13]): inhibit anchorage-dependent and anchorage-independent growth | growth arrest and cell death (GBM cells): induce both growth arrest and cell death | decrease in the total number of cells ([4]; 75 μM FTS alone): ~2 fold | cell death (panc-1 cells; FTS alone): did not induce death | anchorage-dependent and anchorage-independent growth (panc-1 cells; [13]): inhibit anchorage-dependent and anchorage-independent growth | cell death above the levels observed in the controls [5]: did not cause a significant increase in death | percentage of dead cells ([6]; 50 μM FTS alone (10 mM glucose)): 4% | percentage of dead cells ([6]; 75 μM FTS alone (10 mM glucose)): 7% | cell death above the levels observed in the controls [7]: did not cause a significant increase in death | decrease in the total number of cells ([8]; 75 μM FTS alone): ~2 fold | decrease in the total number of cells ([9]; 75 μM FTS alone): ~2 fold | total cell number [10]: induced a decrease in total cell number | cell death [11]: no significant increase in cell death | total cell number [12]: induced a decrease in total cell number

Source: patent US8278349B2, “Cancer treatment using FTS and 2-deoxyglucose” (Ramot at Tel-Aviv University Ltd., priority 2005, dated 2012)
